{
  "source": "patent EP1863471B9",
  "about": "“USE OF ANGELIC ACID ESTERS AS AN ANTIPHLOGISTIC ACTIVE INGREDIENT AND ANTIPHLOGISTIC PREPARATIONS” (Miltitz Aromatics GmbH, priority 2005, dated 2006)",
  "key": {"[1]": {"tested_on": "Carrageenin-induzierten Rattenpfotenödem", "details": "literature values from V. Jakovlev et al., Journal of Medicinal Plant Research 35 (1979), 125-140, corresponding test conditions, cited from earlier work"}, "[2]": {"tested_on": "Carrageenin-induzierten Rattenpfotenödem", "test": "Carrageenin-induced rat paw oedema, oral administration of test substance", "type": "in vivo, Ratte", "details": "for ED50: oral administration, calculated from dose-dependent percent inhibition of oedema development, own tests", "excerpt": "Die antiinflammatorische Wirkung von Isobutylangelat wurde am Carrageenin-induzierten ([…]) Rattenpfotenödem getestet. Isobutylangelat wurde oral verabreicht.\nDie Testbedingungen entsprachen den in der Literatur verwendeten, so dass Quervergleiche hergestellt werden konnten. (V. Jakovlev et al. in Journal of Medicinal Plant Research 35 (1979), 125-140).\nAls Vergleichssubstanz in den eigenen Tests diente (-)-alpha-Bisabolol. Dosisabhängig wurde die prozentuale Hemmung der Ödementwichlung bestimmt. Daraus ließ sich der ED50 Wert errechnen.\nDosierungen von 100, 464, 1000 und 2150 mg Isobutylangelat/kg Körpergewicht wurden getestet. Die Ergebnisse wurden mit den für eine Kontrollgruppe (0,8 % Hydroxypropylmethylcellulose Gel) und zusätzlich den für die positive Kontrolle ((-)-alpha- Bisabolol) erhaltenen Werten verglichen."}},
  "note": "Like-named read-outs stand apart in the source and are kept apart here.",
  "data": [
    {"compound": "CC1=CC[C@@H]([C@]2(C)CCC(=O)C(C)(C)O2)CC1", "note": "[Bisabolonoxid]", "values": [
      {"measurement": "ED50", "setting": "[1]", "result": "> 2000", "unit": "mg/kg"}
    ]},
    {"compound": "CC1=CCC(C2(C)CCC(C(C)(C)O)O2)CC1", "note": "(stereo not drawn) [Bisabololoxid B]", "values": [
      {"measurement": "ED50", "setting": "[1]", "result": "> 2000", "unit": "mg/kg"}
    ]},
    {"compound": "C/C=C(/C)C(=O)OCC(C)C", "note": "[Isobutylangelat]", "values": [
      {"measurement": "ED50", "setting": "[2]", "result": 2310, "unit": "mg/kg"},
      {"measurement": "minimal effective dose", "setting": "[2]; oral, doses tested 100, 464, 1000 and 2150 mg/kg body weight, read-out: dosisabhängige antiinflammatorische Wirkung, beginnend bei", "result": "≥ 100", "unit": "mg/kg"}
    ]},
    {"compound": "CC1=CCC(C2(C)CCC(O)C(C)(C)O2)CC1", "note": "(stereo not drawn) [Bisabololoxid A]", "values": [
      {"measurement": "ED50", "setting": "[1]", "result": 3164, "unit": "mg/kg"}
    ]},
    {"compound": "CC(C)=CCC[C@](C)(O)[C@@H]1CC=C(C)CC1", "note": "[Dragosantol]", "values": [
      {"measurement": "ED50", "setting": "[1]", "result": "> 3000", "unit": "mg/kg"}
    ]},
    {"compound": "CC(C)=CCC[C@@](C)(O)[C@H]1CC=C(C)CC1", "note": "[(+) alpha Bisabolol]", "values": [
      {"measurement": "ED50", "setting": "[1]", "result": "> 2000", "unit": "mg/kg"}
    ]},
    {"compound": "CC(C)=CCC[C@](C)(O)[C@@H]1CC=C(C)CC1", "note": "[(-)-alpha-Bisabolol]", "values": [
      {"measurement": "ED50", "setting": "[2]", "result": 1540, "unit": "mg/kg"},
      {"measurement": "ED50", "setting": "[1]; listed as (-) alpha Bisabolol", "result": 1465, "unit": "mg/kg"}
    ]}
  ]
}
